Experimental data reported in ChEMBL document CHEMBL4828748, “Design, synthesis, and pharmacological evaluation of sinomenine derivatives on rings A and C: Novel compounds screening for aplastic anemia targeting on cytotoxic T lymphocyte” (Eur J Med Chem, 2021).
Calls of active or inactive are those of the source. The rule behind the calls is not given here.

Key:
[1] = Inhibition of CD3/CD28 antibody-stimulated C57BL/6 mouse primary CD8-positive T lymphocytes activation assessed as proportion of CD69-positive cells at 3 uM incubated for 48 hrs by flow cytometry (reference value: 93.42%); assay type: functional, CD8-positive T cell; parameters: scale not given: the % may be the effect or the level left
Mus musculus [2] = assay: Anti-aplastic anaemia in immune-mediated bone marrow failure BALB/c mouse model assessed as increase in ratio of nucleated cell to erythroid cell counts in femur at 2.5 to 10 mg/kg, po administered for 14 days and measured on day 14 by Hematoxylin-Eosin staining based analysis; assay type: functional, organism-based; conditions: dose 2.5-10 mg/kg, time 14.0 day
CD8-positive T cell [3] = assay: Inhibition of aerobic glycolysis in CD3/CD28 antibody-stimulated C57BL/6 mouse primary CD8-positive T lymphocytes assessed as reduction in lactate production at 1 to 5 uM incubated for 48 hrs; assay type: functional, tissue-based; conditions: dose 1-5 µM
CD8-positive T cell [4] = assay: Inhibition of CD3/CD28 antibody-stimulated C57BL/6 mouse primary CD8-positive T lymphocytes proliferation assessed as reduction in cell viability incubated for 48 hrs by CCK8 assay; assay type: functional, tissue-based; conditions: dose 1-10 µM
Mus musculus [5] = assay: Anti-aplastic anaemia in immune-mediated bone marrow failure BALB/c mouse model assessed as increase in immature reticulocytes administered orally for 14 days and measured on day 14 by automated micro-analyzer; assay type: functional, organism-based; conditions: dose 2.5-10 mg/kg, time 14.0 day
[6] = Inhibition of hematopoietic negative regulators release in CD3/CD28 antibody-stimulated C57BL/6 mouse primary CD8-positive T lymphocytes assessed as suppression of IFN-gamma release measured after 48 hrs by ELISA; assay type: functional, tissue-based; conditions: C57BL/6, CD8-positive T cell
Mus musculus [7] = assay: Anti-aplastic anaemia in immune-mediated bone marrow failure BALB/c mouse model assessed as increase in spleen index at 2.5 to 10 mg/kg, po administered for 14 days; assay type: functional, organism-based; conditions: dose 2.5-10 mg/kg, time 14.0 day
Mus musculus [8] = assay: Anti-aplastic anaemia in immune-mediated bone marrow failure BALB/c mouse model assessed as increase in platelet count at 2.5 to 10 mg/kg, po administered for 14 days and measured on day 14 by automated micro-analyzer; assay type: functional, organism-based; conditions: dose 2.5-10 mg/kg, time 14.0 day
[9] = Acute toxicity in Kunming mouse assessed as animal survival without abnormal state at 5 to 10 g/kg, po administered as single dose; assay type: organism-based; conditions: in vivo, dose 5-10 g/Kg
Mus musculus [10] = assay: Anti-aplastic anaemia in immune-mediated bone marrow failure BALB/c mouse model assessed as increase in hematocrit content at 2.5 to 10 mg/kg, po administered for 14 days and measured on day 14 by automated micro-analyzer; assay type: functional, organism-based; conditions: dose 2.5-10 mg/kg, time 14.0 day
CD8-positive T cell [11] = assay: Inhibition of CD3/CD28 antibody-stimulated C57BL/6 mouse primary CD8-positive T lymphocytes proliferation at 1 to 5 uM incubated for 48 hrs by CFSE staining based flow cytometry; assay type: functional, tissue-based; conditions: dose 1-5 µM
Mus musculus [12] = assay: Anti-aplastic anaemia in immune-mediated bone marrow failure BALB/c mouse model assessed as prevention of food intake decrease at 2.5 to 10 mg/kg, po administered for 14 days; assay type: functional, organism-based; conditions: dose 2.5-10 mg/kg, time 14.0 day
[13] = Inhibition of hematopoietic negative regulators release in CD3/CD28 antibody-stimulated C57BL/6 mouse primary CD8-positive T lymphocytes assessed as suppression of TNF-alpha release measured after 48 hrs by ELISA; assay type: functional, tissue-based; conditions: C57BL/6, CD8-positive T cell
Mus musculus [14] = assay: Anti-aplastic anaemia in immune-mediated bone marrow failure BALB/c mouse model assessed as increase in WBC count at 2.5 to 10 mg/kg, po administered for 14 days and measured on day 14 by automated micro-analyzer; assay type: functional, organism-based; conditions: dose 2.5-10 mg/kg, time 14.0 day
[15] = Inhibition of mouse CTLL-2 cells activity at 10 uM incubated for 24 hrs; assay type: functional
Mus musculus [16] = assay: Anti-aplastic anaemia in immune-mediated bone marrow failure BALB/c mouse model assessed as slowing down the weight loss at 2.5 to 10 mg/kg, po administered for 14 days; assay type: functional, organism-based; conditions: dose 2.5-10 mg/kg, time 14.0 day
Mus musculus [17] = assay: Anti-aplastic anaemia in immune-mediated bone marrow failure BALB/c mouse model assessed as reduction in histopathological changes in femur at 2.5 to 10 mg/kg, po administered for 14 days and measured on day 14 by Hematoxylin-Eosin staining based analysis; assay type: functional, organism-based; conditions: dose 2.5-10 mg/kg, time 14.0 day
[18] = Inhibition of IFN-gamma release in mouse CTLL-2 cells measured after 24 hrs by ELISA; assay type: functional, cell-based; conditions: CTLL-2, 24 h
[19] = biological target: Voltage-gated inwardly rectifying potassium channel KCNH2 (Homo sapiens, UniProt Q12809); assay: Inhibition of human ERG expressed in CHO cells measured after 24 hrs by patch clamp assay; assay type: cell-based
Mus musculus [20] = assay: Anti-aplastic anaemia in immune-mediated bone marrow failure BALB/c mouse model assessed as increase in neutrophils count at 2.5 to 10 mg/kg, po administered for 14 days and measured on day 14 by automated micro-analyzer; assay type: functional, organism-based; conditions: dose 2.5-10 mg/kg, time 14.0 day
Peritoneal macrophage = assay: Inhibition of LPS-induced NO production in C57BL/6J mouse peritoneal macrophages at 10 uM measured after 24 hrs in presence of LPS by Griess reagent based assay relative to control; assay type: functional
hERG (KCNH2) = hERG (KCNH2) (Homo sapiens, UniProt Q12809); assay: Inhibition of human ERG expressed in CHO cells measured after 24 hrs by patch clamp assay relative to control; assay type: cell-based; conditions: CHO cells expressing human ERG
[21] = Inhibition of CD3/CD28 antibody-stimulated C57BL/6 mouse primary CD8-positive T lymphocytes activation assessed as proportion of CD69-positive cells at 5 uM incubated for 48 hrs by flow cytometry (reference value: 93.42%); assay type: functional, CD8-positive T cell; parameters: scale not given: the % may be the effect or the level left
[22] = Cytotoxicity against C57BL/6J mouse peritoneal macrophages assessed as reduction of cell viability at 10 uM incubated for 24 hrs in presence of LPS by MTT assay; assay type: cell-based, Peritoneal macrophage
Mus musculus [23] = assay: Anti-aplastic anaemia in immune-mediated bone marrow failure BALB/c mouse model assessed as increase in eosinophils count at 2.5 to 10 mg/kg, po administered for 14 days and measured on day 14 by automated micro-analyzer; assay type: functional, organism-based; conditions: dose 2.5-10 mg/kg, time 14.0 day
Mus musculus [24] = assay: Anti-aplastic anaemia in immune-mediated bone marrow failure BALB/c mouse model assessed as increase in thymus index at 2.5 to 10 mg/kg, po administered for 14 days; assay type: functional, organism-based; conditions: dose 2.5-10 mg/kg, time 14.0 day
Mus musculus [25] = assay: Anti-aplastic anaemia in immune-mediated bone marrow failure BALB/c mouse model assessed as increase in plateletcrit at 2.5 to 10 mg/kg, po administered for 14 days and measured on day 14 by automated micro-analyzer; assay type: functional, organism-based; conditions: dose 2.5-10 mg/kg, time 14.0 day
[26] = Cytotoxicity against C57BL/6 mouse primary CD8-positive T lymphocytes assessed as effect on cell viability at 1 to 5 uM incubated for 48 hrs by CCK8 assay; assay type: tissue-based; conditions: dose 1-5 µM
Mus musculus [27] = assay: Anti-aplastic anaemia in immune-mediated bone marrow failure BALB/c mouse model assessed as increase in hemoglobin content at 2.5 to 10 mg/kg, po administered for 14 days and measured on day 14 by automated micro-analyzer; assay type: functional, organism-based; conditions: dose 2.5-10 mg/kg, time 14.0 day
[28] = Inhibition of CD3/CD28 antibody-stimulated C57BL/6 mouse primary CD8-positive T lymphocytes activation assessed as proportion of CD69-positive cells at 1 uM incubated for 48 hrs by flow cytometry (reference value: 93.42%); assay type: functional, CD8-positive T cell; parameters: scale not given: the % may be the effect or the level left
Mus musculus [29] = assay: Anti-aplastic anaemia in immune-mediated bone marrow failure BALB/c mouse model assessed as increase in RBC count at 2.5 to 10 mg/kg, po administered for 14 days and measured on day 14 by automated micro-analyzer; assay type: functional, organism-based; conditions: dose 2.5-10 mg/kg, time 14.0 day
[30] = Acute toxicity in po dosed Kunming mouse; assay type: organism-based; conditions: in vivo
CD8-positive T cell [31] = assay: Inhibition of aerobic glycolysis in CD3/CD28 antibody-stimulated C57BL/6 mouse primary CD8-positive T lymphocytes assessed as reduction in glucose consumption at 1 to 5 uM incubated for 48 hrs; assay type: functional, tissue-based; conditions: dose 1-5 µM
[32] = Inhibition of mouse CTLL-2 cells activity incubated for 24 hrs; assay type: functional, cell-based
Mus musculus [33] = assay: Anti-aplastic anaemia in immune-mediated bone marrow failure BALB/c mouse model assessed as increase in nucleated cell counts in femur at 2.5 to 10 mg/kg, po administered for 14 days and measured on day 14 by Hematoxylin-Eosin staining based analysis; assay type: functional, organism-based; conditions: dose 2.5-10 mg/kg, time 14.0 day

Sequence of hERG (KCNH2) (Q12809 whole entry): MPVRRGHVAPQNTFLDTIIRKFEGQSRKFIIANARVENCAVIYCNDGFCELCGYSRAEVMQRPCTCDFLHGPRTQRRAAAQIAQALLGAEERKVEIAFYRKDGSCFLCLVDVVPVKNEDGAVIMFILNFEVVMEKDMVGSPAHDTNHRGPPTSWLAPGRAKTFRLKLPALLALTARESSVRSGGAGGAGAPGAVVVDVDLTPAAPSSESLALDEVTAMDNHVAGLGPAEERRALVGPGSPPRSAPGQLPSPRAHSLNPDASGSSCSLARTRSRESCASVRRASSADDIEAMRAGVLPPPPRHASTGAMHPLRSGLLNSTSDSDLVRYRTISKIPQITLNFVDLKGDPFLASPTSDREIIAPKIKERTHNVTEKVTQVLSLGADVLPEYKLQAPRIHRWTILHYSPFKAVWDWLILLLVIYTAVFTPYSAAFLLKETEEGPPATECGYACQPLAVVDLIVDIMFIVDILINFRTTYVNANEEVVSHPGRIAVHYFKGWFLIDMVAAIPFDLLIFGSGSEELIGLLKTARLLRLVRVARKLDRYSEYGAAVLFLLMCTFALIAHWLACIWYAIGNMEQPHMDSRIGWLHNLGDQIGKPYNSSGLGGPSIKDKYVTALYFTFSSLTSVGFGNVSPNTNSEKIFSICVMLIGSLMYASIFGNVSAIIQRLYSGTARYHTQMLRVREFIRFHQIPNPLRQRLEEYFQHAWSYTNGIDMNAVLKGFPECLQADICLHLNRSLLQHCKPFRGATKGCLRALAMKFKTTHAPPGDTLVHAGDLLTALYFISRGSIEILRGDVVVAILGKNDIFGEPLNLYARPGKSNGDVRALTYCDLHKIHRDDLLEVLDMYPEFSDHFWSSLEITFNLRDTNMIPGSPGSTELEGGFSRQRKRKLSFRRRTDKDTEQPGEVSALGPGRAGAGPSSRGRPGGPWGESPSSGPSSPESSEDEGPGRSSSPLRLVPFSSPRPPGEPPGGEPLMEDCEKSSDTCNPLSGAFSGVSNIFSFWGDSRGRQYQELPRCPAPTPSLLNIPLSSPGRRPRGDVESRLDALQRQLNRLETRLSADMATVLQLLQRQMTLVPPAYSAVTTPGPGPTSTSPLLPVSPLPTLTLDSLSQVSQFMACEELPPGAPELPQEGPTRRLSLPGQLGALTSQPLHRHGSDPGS
Sequence of Voltage-gated inwardly rectifying potassium channel KCNH2 (Q12809 whole entry): as above

## COC1=C[C@@H]2[C@@H]3Cc4c(COC(=O)/C=C/c5ccccc5)cc(OC)c(OC(=O)/C=C/c5ccccc5)c4[C@]2(CCN3C)CC1=O
[1]
  Activity: 80.87%
Mus musculus [2]
  Activity: Active
CD8-positive T cell [3]
  inhibition: Active
CD8-positive T cell [4]
  inhibition: Dose-Dependent Effect
Mus musculus [5]
  Activity: Active
[6]
  IC50: 3.2 µM
Mus musculus [7]
  Activity: Active
Mus musculus [8]
  Activity: Active
[9]
  Survival: 14 days
Mus musculus [10]
  Activity: Active
CD8-positive T cell [11]
  inhibition: Active
Mus musculus [12]
  Activity: Active
[13]
  IC50: 4.4 µM
Mus musculus [14]
  Activity: Active
[15]
  inhibition at 10 µM: 98.1%
Mus musculus [16]
  Activity: Active
Mus musculus [17]
  Activity: Active
[18]
  IC50: 4.5 µM
[19]
  IC50: > 30 µM
Mus musculus [20]
  Activity: Active
Peritoneal macrophage
  inhibition at 10 µM: 97.1%
hERG (KCNH2)
  inhibition at 24 h: 26.2%
[21]
  Activity: 76.97%
[22]
  inhibition at 24 h, 10 µM: 6.4%
Mus musculus [23]
  Activity: Active
Mus musculus [24]
  Activity: Active
Mus musculus [25]
  Activity: Active
[26]
  Activity: Non-Toxic
Mus musculus [27]
  Activity: Active
[28]
  Activity: 89.37%
Mus musculus [29]
  Activity: Active
[30]
  LD50: > 10000 mg/kg
CD8-positive T cell [31]
  inhibition: Active
[32]
  IC50: 2.3 µM
Mus musculus [33]
  Activity: Active
